From ChEMBL document CHEMBL1201862, “PubChem BioAssay data set” (2004) come the findings set out here.

Test systems include 786-0; IGROV-1; K562; CCRF-CEM; SK-MEL-28; SK-MEL-5; KM12; NCI-H522; HL-60; SW-620; MOLT-4; OVCAR-5; SF-268; HOP-92.
Holding throughout (assay): inhibition of tumour cell growth, NCI panel, 48 h

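Briefly, cells in 96-well plates were exposed to five compound concentrations for 48 h, and endpoints were estimated by linear interpolation. GI50: concentration for 50% inhibition of growth.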 Calls of active or inactive are those of the source. Cut-off read from the data, not from the text of the source: active = GI50 up to about 1.1 µM and inactive = higher.

Regarding `Cc1ccccc1NC(=O)c1cc2cc(/N=N/c3ccccc3C(=O)O)ccc2oc1=O`, the GI50 was 27.1 µM (inactive) with 786-0; 25 µM (inactive) in the test on IGROV-1; 23.6 µM (inactive) in the test on K562; 19.7 µM (inactive) in the test on CCRF-CEM; 13.5 µM (inactive) in the test on SK-MEL-28; 14.5 µM (inactive) in the test with SK-MEL-5. In addition, the GI50 in the test with KM12 is 12.6 µM (inactive); in the test on NCI-H522, 12.3 µM (inactive); in the test with HL-60, 19.5 µM (inactive); with SW-620, 27.4 µM (inactive); in the test on MOLT-4, 18.7 µM (inactive).

As for `Cc1ccc(S(=O)(=O)OCC23CCC(CC2)C2CC23)cc1` (stereo not drawn), the GI50 in the test on OVCAR-5 was > 100 µM (inactive); in the test on 786-0 it was 61.2 µM (inactive); in the test on IGROV-1 it was > 100 µM (inactive); in the test with K562, 39.6 µM (inactive); with CCRF-CEM, 39.7 µM (inactive); in the test on SK-MEL-28, 96.6 µM (inactive). Also, the GI50 in the test on SK-MEL-5 was 24 µM (inactive); with SF-268, 37.5 µM (inactive); in the test with HL-60, 17.4 µM (inactive); in the test on SW-620 it was 87.1 µM (inactive); in the test with MOLT-4, 35.4 µM (inactive); in the test on HOP-92, 25.8 µM (inactive).

Consider `O=C(O)C1=C(C(=O)Nc2ccc(NC(=O)C3=C(C(=O)O)C4C=CC3C4)cc2)C2C=CC1C2`, for which the GI50 was > 100 µM (inactive) in the test on OVCAR-5; > 100 µM (inactive) in the test on 786-0; > 100 µM (inactive) in the test with IGROV-1; 54.5 µM (inactive) with K562; > 100 µM (inactive) with CCRF-CEM; > 100 µM (inactive) in the test on SK-MEL-28. Besides, the GI50 in the test with SK-MEL-5, with SF-268, in the test on KM12, in the test with HL-60, in the test with SW-620 and in the test with MOLT-4 was > 100 µM (inactive) in each case. In the test with HOP-92, the GI50 is > 100 µM (inactive).

As for `CCc1cccc(C)c1NC(=O)CC1C(=O)Nc2ccccc2[S+]1[O-]` (stereo not drawn), the GI50 in the test on OVCAR-5 is > 100 µM (inactive); in the test on 786-0 it was 47.5 µM (inactive); in the test with K562 it was 24.7 µM (inactive); in the test with SK-MEL-28, 73.1 µM (inactive); in the test on SF-268, 42.2 µM (inactive); in the test with KM12, 54.2 µM (inactive). Besides, the GI50 with NCI-H522 was 31.1 µM (inactive); with HL-60, 28.4 µM (inactive); with SW-620, 48.3 µM (inactive); in the test on MOLT-4 it was 37.1 µM (inactive); with HOP-92, 53.7 µM (inactive).

Take `CC1=C(C(=O)CC(=O)C(=O)NC2C3CC4CC(C3)CC2C4)Sc2ccccc2N1` (stereo not drawn): the GI50 with OVCAR-5 was > 100 µM (inactive); in the test with 786-0, > 100 µM (inactive); with IGROV-1 it was > 100 µM (inactive); in the test on K562 it was 84.3 µM (inactive); in the test on SK-MEL-28 it was > 100 µM (inactive); with SK-MEL-5, > 83.6 µM (inactive). The GI50 in the test on SF-268 was > 94.8 µM (inactive); in the test with KM12 it was > 86.3 µM (inactive); in the test with NCI-H522 it was 97.5 µM (inactive); in the test with HL-60, > 100 µM (inactive); in the test with SW-620 it was > 100 µM (inactive); with MOLT-4 it was 4.43 µM (inactive). Also, the GI50 with HOP-92 is 20.1 µM (inactive).

Regarding `O=C(COC(=O)c1cccc2c(=O)c3ccccc3[nH]c12)Nc1ccccc1`, the GI50 was > 100 µM (inactive) in the test with 786-0; > 100 µM (inactive) in the test with IGROV-1; 33.2 µM (inactive) in the test on K562; 43.5 µM (inactive) in the test with SK-MEL-28; 19.8 µM (inactive) with SK-MEL-5; > 100 µM (inactive) with SF-268. For the same compound, the GI50 with KM12 is 21.1 µM (inactive); in the test on NCI-H522 it was 25.3 µM (inactive); in the test on HL-60 it was 16.7 µM (inactive); with SW-620, 90.8 µM (inactive); with MOLT-4, 17.1 µM (inactive); in the test with HOP-92, 45 µM (inactive).

Turning to `N#Cc1c2c(c(N=[N+]=[N-])n3c1nc1ccccc13)CCCC2`, the GI50 was 6.07 µM (inactive) in the test on OVCAR-5; 1.9 µM (inactive) in the test on 786-0; 2.72 µM (inactive) in the test with IGROV-1; 2.16 µM (inactive) in the test with K562; 4.12 µM (inactive) with SK-MEL-28; 18.3 µM (inactive) with SK-MEL-5. For the same compound, the GI50 is 3.49 µM (inactive) in the test with SF-268; 2.29 µM (inactive) in the test on KM12; 2.32 µM (inactive) with HL-60; 2.05 µM (inactive) in the test on SW-620; 1.62 µM (inactive) in the test with MOLT-4.

Turning to `Cc1nc2c(n1Cc1ccc(Cl)cc1)C(=O)c1ccccc1C2=O`, the GI50 in the test on 786-0 was 5.68 µM (inactive); in the test on IGROV-1, > 75 µM (inactive); in the test on K562, 2.06 µM (inactive); in the test with CCRF-CEM, 4.67 µM (inactive); in the test on SK-MEL-28, > 75 µM (inactive); with SK-MEL-5, 16.4 µM (inactive). In addition, the GI50 was 5.09 µM (inactive) in the test on SF-268; > 75 µM (inactive) in the test on KM12; 5.52 µM (inactive) with NCI-H522; 4.36 µM (inactive) in the test with HL-60; 3.14 µM (inactive) with MOLT-4.

Regarding `COc1cccc(NC(=O)/C(Cc2nc3ccccc3nc2C)=N/NC(=O)C[n+]2ccccc2)c1`, the GI50 in the test on OVCAR-5 is > 100 µM (inactive); with 786-0, > 100 µM (inactive); in the test with IGROV-1, > 100 µM (inactive); with K562, 71.9 µM (inactive); in the test on CCRF-CEM it was 51.5 µM (inactive); with SK-MEL-28, > 100 µM (inactive). Further, the GI50 is > 100 µM (inactive) with SK-MEL-5; > 100 µM (inactive) in the test on SF-268; > 100 µM (inactive) with KM12; > 100 µM (inactive) in the test with HL-60; 9.08 µM (inactive) with SW-620; > 100 µM (inactive) in the test on MOLT-4.

Regarding `C/C(CC(=O)Nc1ccc(Cl)c(Cl)c1)=N/NC(=O)C[N+](C)(C)C`, the GI50 in the test on OVCAR-5 was > 100 µM (inactive); with 786-0, 56.5 µM (inactive); in the test with IGROV-1, > 100 µM (inactive); in the test on K562, 46.1 µM (inactive); in the test on CCRF-CEM, > 100 µM (inactive); in the test on SK-MEL-28, 0.194 µM (active). The GI50 is > 100 µM (inactive) with SK-MEL-5; > 100 µM (inactive) in the test on SF-268; > 100 µM (inactive) in the test with KM12; 44 µM (inactive) in the test with HL-60; > 100 µM (inactive) with MOLT-4; > 100 µM (inactive) with HOP-92.

With `CCN(CC)C(=O)CC12CCCCC1=Nc1ccccc12` (stereo not drawn), the GI50 in the test with OVCAR-5, in the test on 786-0, in the test with IGROV-1, with K562, with CCRF-CEM and in the test on SK-MEL-28 was > 100 µM (inactive) each time. The GI50 in the test with SK-MEL-5 is > 100 µM (inactive); in the test with KM12 it was > 100 µM (inactive); with HL-60, > 100 µM (inactive); with SW-620, > 100 µM (inactive); with MOLT-4, > 100 µM (inactive); in the test with HOP-92, 51.6 µM (inactive).

Regarding `CC(C)=CC(=O)N(C)C1C2CN3CCC(O2)C13` (stereo not drawn), the GI50 in the test on OVCAR-5, with 786-0, in the test on IGROV-1, in the test with K562, in the test on CCRF-CEM and in the test on SK-MEL-28 was > 100 µM (inactive) each time. Moreover, the GI50 in the test on SK-MEL-5, in the test with SF-268, in the test with KM12, with NCI-H522, with HL-60 and in the test on SW-620 was > 100 µM (inactive) throughout. In the test with MOLT-4, the GI50 is > 100 µM (inactive).
